# Patent publication US8188101B2 (AstraZeneca AB, priority 2008, dated 2012)
# System: Aβ42 release
# Experiment: Aβ release in cells stably expressing APPswe, Meso Scale Discovery electrochemiluminescence assay
# Format: cell-based, Human
# Details: Homo sapiens, SH-SY5Y, HEK or SH-SY5Y cells stably expressing APPswe, 4-6 hours incubation with test compound
# How it was run: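 HEK or SH-SY5Y cells stably expressing APPswe, plated 15-24 h, then exposed to compound (diluted ×200 into fresh medium) for 4-6 h at 37 °C. Secreted Aβ42 in medium quantified by Meso Scale Discovery electrochemiluminescence with specific antibodies; cytotoxicity checked by cellular ATP content.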
row,IC50 [nM],Compound
1,794,"CN(C)C(=O)N1CCc2nc(Nc3ccc(-c4cnco4)cc3)nc(N(CCO)c3ccccc3)c2C1 [Example 25, 4-((2-Hydroxyethyl)(phenyl)amino)-N,N-dimethyl-2-(4-(oxazol-5-yl)phenylamino)-7,8-dihydropyrido[4,3-d]pyrimidine-6(5H)-carboxamide]"
2,158,"OCCN1CCc2nc(Nc3ccc(-c4cnco4)cc3)nc(NC[C@H]3CCCO3)c2C1 [Example 80, (R)-2-(2-(4-(Oxazol-5-yl)phenylamino)-4-((tetrahydrofuran-2-yl)methylamino)-7,8-dihydropyrido[4,3-d]pyrimidin-6(5H)-yl)ethanol]"
3,200,"CC(=O)N1CCc2nc(Nc3ccc(-n4ccnc4C)cc3)nc(CCC3CCCCC3)c2C1 [Example 58, 1-(4-(2-Cyclohexylethyl)-2-(4-(2-methyl-1H-imidazol-1-yl)phenylamino)-7,8-dihydropyrido[4,3-d]pyrimidin-6(5H)-yl)ethanone]"
4,5010,"CC(=O)N1CCc2nc(Nc3ccc(-c4cnco4)cc3)nc(N(C)Cc3cccnc3)c2C1 [Example 36, 1-(4-(Methyl(pyridin-3-ylmethyl)amino)-2-(4-(oxazol-5-yl)phenylamino)-7,8-dihydropyrido[4,3-d]pyrimidin-6(5H)-yl)ethanone]"
5,251,"CCN(CC1CCCO1)c1nc(Nc2ccc(-c3cnco3)cc2)nc2c1CN(CCO)CC2 (stereo not shown) [Example 81, 2-(4-(Ethyl((tetrahydrofuran-2-yl)methyl)amino)-2-(4-(oxazol-5-yl)phenylamino)-7,8-dihydropyrido[4,3-d]pyrimidin-6(5H)-yl)ethanol]"
6,126,"COc1cc(Nc2nc3c(c(CCC4CCCO4)n2)COCC3)ccc1-n1cnc(C)c1 (stereo not shown) [Example 102, N-(3-Methoxy-4-(4-methyl-1H-imidazol-1-yl)phenyl)-4-(2-(tetrahydrofuran-2-yl)ethyl)-7,8-dihydro-5H-pyrano[4,3-d]pyrimidin-2-amine]"
7,794,"CC(=O)N1CCc2nc(Nc3ccc(-n4ccnc4C)cc3)nc(Cc3ccccc3F)c2C1 [Example 98, 1-(4-(2-Fluorobenzyl)-2-(4-(2-methyl-1H-imidazol-1-yl)phenylamino)-7,8-dihydropyrido[4,3-d]pyrimidin-6(5H)-yl)ethanone]"
8,316,"CCN(CC1CCCO1)c1nc(Nc2ccc(-c3cnco3)cc2)nc2c1CN(C)CC2 (stereo not shown) [Example 82, N4-Ethyl-6-methyl-N2-(4-(oxazol-5-yl)phenyl)-N4-((tetrahydrofuran-2-yl)methyl)-5,6,7,8-tetrahydropyrido[4,3-d]pyrimidine-2,4-diamine]"
9,316,"COC(c1ccccc1)c1nc(Nc2ccc(-n3ccnc3C)cc2)nc2c1COCC2 (stereo not shown) [Example 65, 4-(Methoxy(phenyl)methyl)-N-(4-(2-methyl-1H-imidazol-1-yl)phenyl)-7,8-dihydro-5H-pyrano[4,3-d]pyrimidin-2-amine]"
10,25.1,"COc1cc(Nc2nc3c(c(Cc4ccccc4)n2)CN(C(C)=O)CC3)ccc1-n1cnc(C)c1 [Example 107, 1-(4-Benzyl-2-(3-methoxy-4-(4-methyl-1H-imidazol-1-yl)phenylamino)-7,8-dihydropyrido[4,3-d]pyrimidin-6(5H)-yl)ethanone]"
11,3160,"Cc1nccn1-c1ccc(Nc2nc3c(c(N4c5ccccc5C[C@@H]4CO)n2)CN(C)CC3)cc1 [Example 13, (R)-(1-(6-Methyl-2-(4-(2-methyl-1H-imidazol-1-yl)phenylamino)-5,6,7,8-tetrahydropyrido[4,3-d]pyrimidin-4-yl)indolin-2-yl)methanol]"
12,6310,"CC(=O)N1CCc2nc(Nc3ccc(-c4cnco4)cc3)nc(N3CCCC(CO)C3)c2C1 (stereo not shown) [Example 93, 1-(4-(3-(Hydroxymethyl)piperidin-1-yl)-2-(4-(oxazol-5-yl)phenylamino)-7,8-dihydropyrido[4,3-d]pyrimidin-6(5H)-yl)ethanone]"
13,501,"Cc1nccn1-c1ccc(Nc2nc3c(c(N(CCO)Cc4ccccc4)n2)CN(C)CC3)cc1 [Example 76, 2-(Benzyl(6-methyl-2-(4-(2-methyl-1H-imidazol-1-yl)phenylamino)-5,6,7,8-tetrahydropyrido[4,3-d]pyrimidin-4-yl)amino)ethanol]"
